In paper PMC7021728, “Structure of the agonist 12–HHT in its BLT2 receptor-bound state” (Scientific Reports, 2020):
Numbering of substitutions follows the chain as printed.

Tests used:
wild-type BLT2 receptor = target: T1, wild-type BLT2 receptor (Homo sapiens, UniProt Q9NPC1); test: Gi protein activation catalyzed by purified BLT2 (rate of GTPγS binding, Gαi2 intrinsic fluorescence); assay type: biochemical
T1 construct: made in house
T1 sequence (Q9NPC1 1-358): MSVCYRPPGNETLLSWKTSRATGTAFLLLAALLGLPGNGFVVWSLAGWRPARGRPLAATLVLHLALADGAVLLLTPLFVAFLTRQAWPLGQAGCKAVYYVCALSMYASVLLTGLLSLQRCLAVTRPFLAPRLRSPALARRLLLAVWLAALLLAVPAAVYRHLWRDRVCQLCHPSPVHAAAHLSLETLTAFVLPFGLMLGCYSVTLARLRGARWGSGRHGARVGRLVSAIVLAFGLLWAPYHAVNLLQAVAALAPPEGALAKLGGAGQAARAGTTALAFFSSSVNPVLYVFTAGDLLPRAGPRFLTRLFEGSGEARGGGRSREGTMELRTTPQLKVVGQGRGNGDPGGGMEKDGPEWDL
Method: Gαi2 and Gβ1γ2 were prepared as previously described. Briefly, agonist-dependent functional coupling of the purified receptor to Gαi2β1γ2 was assessed through the rate of GTPγS binding at increasing agonist concentrations determined by monitoring the relative increase in the intrinsic fluorescence ( λexcitation=300nm , λemission=345nm ) of Gαi2 (200 nM of purified G protein) in the presence of BLT2 (20 nM) in buffer containing 10 mM MOPS, pH 7.2, 130 mM NaCl, and 2 mM MgCl2 at 15 °C after the addition of 10 μM GTPγS. The data were normalized to the fluorescence maximum obtained in the presence of saturating concentrations in 12–HHT (10 μM).

BLT1 = tested on: BLT1; design: method as in PMID 18378794; settings: in words; cited from earlier work
BLT2 P175^ECL2A = target: T2, BLT2 P175^ECL2A (Homo sapiens, UniProt Q9NPC1, P175A); test: Gi protein activation catalyzed by BLT2 mutant; assay type: biochemical
T2 construct: made in house
T2 sequence (Q9NPC1 1-358 P175A): T1 sequence (Q9NPC1 1-358) with P175A
Method: (§1) All mutations were introduced in the wild-type BLT2 receptor by PCR-mediated mutagenesis using the QuickChange multisite-directed mutagenesis kit (Stratagene) and the wild-type BLT2 construct as a template. Mutations were confirmed by nucleotide sequencing. […] Gαi2 and Gβ1γ2 were prepared as previously described. […] The data were normalized to the fluorescence maximum obtained in the presence of saturating concentrations in 12–HHT (10 μM).

BLT2 H177^ECL2A = target: T3, BLT2 H177^ECL2A (Homo sapiens, UniProt Q9NPC1, H177A); test: Gi protein activation catalyzed by BLT2 mutant; assay type: biochemical
T3 construct: made in house
T3 sequence (Q9NPC1 1-358 H177A): T1 sequence (Q9NPC1 1-358) with H177A
Method: as §1

BLT2 E185^5.42A = target: T4, BLT2 E185^5.42A (Homo sapiens, UniProt Q9NPC1, E185A); test: Gi protein activation catalyzed by BLT2 mutant; assay type: biochemical
T4 construct: made in house
T4 sequence (Q9NPC1 1-358 E185A): T1 sequence (Q9NPC1 1-358) with E185A
Method: as §1

BLT2 Q267^7.32A = target: T5, BLT2 Q267^7.32A (Homo sapiens, UniProt Q9NPC1, Q267A); test: Gi protein activation catalyzed by BLT2 mutant; assay type: biochemical
T5 construct: made in house
T5 sequence (Q9NPC1 1-358 Q267A): T1 sequence (Q9NPC1 1-358) with Q267A
Method: as §1

What does the source list for `CCCCC[C@H](O)/C=C/C=C/C/C=C\CCCC(=O)O` [12–HHT, 12S–hydroxyheptadeca-5Z,8E,10E-trienoic acid]?
EC50 (wild-type BLT2 receptor; construct wt, Gi protein activation): 21 nM; EC50 (wild-type BLT2 receptor; wild-type): 21 nM; binding to BLT1 (BLT1): does not bind; effect of the mutation on ligand binding (BLT2 P175^ECL2A; P175^ECL2 to alanine compared to wild-type, in words): do not display a significant impact on ligand binding; EC50 (BLT2 P175^ECL2A; construct P175^ECL2A): 38.9 nM; effect of the mutation on ligand binding (BLT2 H177^ECL2A; H177^ECL2 to alanine compared to wild-type, in words): do not display a significant impact on ligand binding; EC50 (BLT2 H177^ECL2A; construct H177^ECL2A): 24.3 nM; effect of the mutation on ligand binding (BLT2 E185^5.42A; E185A compared to wild-type, in words): did not significantly affect; EC50 (BLT2 E185^5.42A; construct E185^5.42A): 70.7 nM; effect of the mutation on ligand binding (BLT2 Q267^7.32A; Q267^7.32A compared to wild-type, in words): no significant change in ligand binding; EC50 (BLT2 Q267^7.32A; construct Q267^7.32A): 33.1 nM
